# Source: patent US11969428B2, “Methods and pharmaceutical compositions for treating lymphoid malignancy” (priority 2011, dated 2024)
# Columns and labels:
# [1] = tested on: CD4+CD8+ DP thymocytes; assay: Fetal thymus organ culture, flow cytometry; type: cell-based, mouse; conditions: IC87114 10 μM, 1 week
# Source text: Thymus lobes were obtained from mouse embryos, with embryonic day 0 (EO) considered the day of vaginal plug detection. Fetal thymus organ cultures were used to compare the effects of pharmacologic blockade of p110δ activity on thymocyte development in WT, p110δ^−/−, and p110γ^−/− mice. Briefly, 3 to 4 intact thymi were placed on bare filter inserts (transwell, 3-μm pore size; Corning Costar, Cambridge, MA) and then were inserted into wells containing DMEM, 10% FCS supplemented with either p110δ-specific inhibitor IC87114 (10 μM) or vehicle control (DMSO), and incubated for 1 week at 37° C. in 5% CO2. Thymocyte differentiation was evaluated by flow cytometry.
# [2] = tested on: Akt/PKB phosphorylation; assay: TCR-induced Akt/PKB phosphorylation in thymocytes (Western blot); type: cell-based, mouse; conditions: p110γ−/− thymocytes; IC87114 10 μM
# Method: Cell lysates (from cell lines or thymocytes) were prepared on ice in M-PER Mammalian Protein Extraction reagent (Pierce) containing a cocktail of protease and phosphatase inhibitors (Swat et al., 2006). Equal amounts of total protein from lysates were subjected to SDS-PAGE, transferred to PVDF membrane (Immobilon-P, Millipore), and membranes probed by overnight incubation with appropriate primary antibodies. Bound antibodies were visualized with HRP-conjugated secondary antibodies and ECL chemistry (SuperPico West, Pierce).
# To assess the requirement for p110δ in TCR-induced phosphorylation of Akt/PBK, single-cell suspensions of thymocytes (1×10^8/mL) from PI3Kγ-deficient animals were incubated with the p110δ-specific inhibitor IC87114 (10 μM) or with vehicle control (DMSO) for 30 minutes before TCR cross-linking, as described for the Ca^2+ flux assay. Aliquots (100 μL) were collected at 0, 10, 30, and 60 minutes after TCR cross-linking, briefly centrifuged to pellet, and subsequently lysed with ice-cold M-Per (Pierce, Rockford, IL) (according to the manufacturer's recommendations) that contained a cocktail of phosphatase and protease inhibitors (Puri et al., 2005). Lysates were clarified by centrifugation (12,000 g for 15 minutes at 4° C.), and total and phosphorylated Akt/PBK were determined by Western blot analysis.
# [3] = tested on: CCRF-CEM cells; assay: Cell proliferation and apoptosis (cell counting, Annexin V); type: cell-based, human
# Method: (§1) Cell proliferation of CCRF-CEM cells or shRNA transfected CCRF-CEM cells, in the presence or absence of appropriate drug, was followed by cell counting of samples in triplicate using a hemocytometer and trypan blue. For apoptosis determinations of untransfected or shRNA transfected CCRF-CEMs, cells were stained with APC-conjugated Annexin-V (BD Biosciences) in Annexin Binding Buffer (Miltyeni Biotec) and analyzed by flow cytometry. For primary T-ALL samples, cell viability was assessed using the BD Cell Viability kit (BD Biosciences) coupled with the use of fluorescent counting beads as previously described (Armstrong et al., 2009). For this, cells were plated with MS5-DL1 stroma cells, and after 72 hours following drug treatment cells were harvested and stained with an APC-conjugated anti-human CD45 followed by a staining with the above kit according to the manufacturer's instructions.
# [4] = tested on: primary human T-ALL tumor cells; assay: Primary T-ALL cell viability on MS5-DL1 stroma; type: cell-based; conditions: selective blockade of PI3Kδ
# Method: as §1
# [5] = CCRF-CEM with p110γ shRNA knockdown, IC87114 10 μM
smiles,measurement,setting,value
"Cc1ccccc1-n1c(Cn2cnc3c(N)ncnc32)nc2cccc(C)c2c1=O [IC87114, reference compound]",reduction in the population of CD4+CD8+ DP thymocytes,"[1]; p110γ−/− day 14.5 fetal thymi, mean±SE",69.2%±2.7%
same,decrease in DP cells,[1]; p110δ−/− or WT control fetal thymi,≤ 10%
same,phosphorylated form of Akt/PKB after TCR cross-linking,[2],not detected
same,proliferation and apoptosis,"[3]; CCRF-CEM containing empty vector alone, IC87114",no major effect
same,apoptosis,[3]; [5],promoted apoptosis
same,proliferation,[3]; [5],prevented proliferation
same,viability of primary human T-ALL samples,[4],ineffective
